Reference: publication PMC11521914 (Frontiers in Pharmacology, 2024)

What was measured:
[1] = molecular target: Protein tyrosine phosphatase 1B (PTP-1B); assay: Protein tyrosine phosphatase 1B (PTP-1B) enzyme activity inhibition assay; format: biochemical; conditions: rat liver supernatant, 10 mM pNPP
Protocol: One day before the isolation of the enzyme-containing subcellular fraction, lysis buffer was prepared (50 mM HEPES, 0.1 mM EGTA, 0.1 mM EDTA, 120 mM NaCl, 0.5% NP-40, pH 7.5) and enriched with one protease inhibitor cocktail tablet per 10 mL of buffer. The liver from an overnight-fasted healthy rat, previously anesthetized with isoflurane, was removed. The organ was then homogenized in lysis buffer as described by [Li et al. (2010)]. The homogenate was filtered and subsequently centrifuged at 14,000 g for 15 min at 4°C. Supernatants were collected and stored at −40°C until use.
Colorimetric assays were carried out to detect the dephosphorylation of pNPP, which is proportional to the activity of the PTP-1B enzyme. Three independent assays were performed in triplicate following the protocols proposed by [Guo et al. (2015)] and [Song et al. (2017)] with slight modifications. […] Finally, the absorbance was measured at 405 nm.
Finally, for in vitro experiments, absorbance values were transformed into activity percentages following the next formula: Enzyme activity %=AS−ASB/AC−ACB×100
Where A S is the absorbance of the inhibitor sample at a specific concentration, A SB is the blank of the inhibitor sample, A C is the highest absorbance (without inhibitor), and A CB is the blank of the highest absorbance. […]

[2] = test system: STZ-NA-hyperglycemic rats; assay: Pyruvate tolerance tests (inhibition of hepatic glucose production); format: in vivo, Wistar rats; conditions: rats fasted 18 h, pyruvate 2 g/kg i.p.; metformin 500 mg/kg b.w. oral
Protocol: Treatment administration (vehicle and samples) was performed orally with the help of an esophageal cannula. Blood samples were obtained from the tail vein and glucose measurements were performed in duplicate using Accu-Chek® Active glucometers.
In summary hyperglycemia was induced as described by [Masiello et al. (1998)], rats fasted for 12 h were administered intraperitoneally with 150 mg/kg b. w. of NA and, 15 min later, 65 mg/kg b. w. of STZ was injected intravenously. After 2 weeks, animals with blood glucose values above 180 mg/dL were selected to perform the tests described below.
After basal glucose measurement, animals received their corresponding treatment. Fifteen minutes later, rats were injected intraperitoneally with a pyruvate solution (2 g/kg b. w.). In total, 30 rats were divided into five groups (n = 6 each group): 1. Normoglycemic Control + pyruvate (NP), receiving physiological solution; 2. Hyperglycemic Control + pyruvate (HP), which was administered with physiological solution; 3. […] (HMP); 4. Hyperglycemic Group + pyruvate + EtOH-WCg, administered with 30 mg/kg b. w. (HCgP); and 5. […] (HJaP). After intraperitoneal injection, glucose levels were measured every 30 min for 2 h ([Mata-Torres et al., 2020]).

Sequence of Protein tyrosine phosphatase 1B (PTP-1B) (P20417 whole entry): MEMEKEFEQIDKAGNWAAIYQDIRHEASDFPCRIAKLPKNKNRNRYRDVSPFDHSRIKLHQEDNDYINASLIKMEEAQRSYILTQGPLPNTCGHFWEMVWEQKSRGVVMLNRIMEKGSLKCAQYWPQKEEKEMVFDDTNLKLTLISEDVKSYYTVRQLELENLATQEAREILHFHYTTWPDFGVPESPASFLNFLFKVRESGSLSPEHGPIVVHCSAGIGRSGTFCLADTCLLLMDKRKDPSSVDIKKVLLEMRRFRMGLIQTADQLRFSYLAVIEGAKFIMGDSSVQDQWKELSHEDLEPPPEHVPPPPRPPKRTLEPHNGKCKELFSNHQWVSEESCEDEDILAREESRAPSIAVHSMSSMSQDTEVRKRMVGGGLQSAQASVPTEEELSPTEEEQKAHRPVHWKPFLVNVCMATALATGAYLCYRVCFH

IC50 ± SEM [1] | Inhibition % [1] | Structure (SMILES) | effect on the hyperglycemic peak 30 min after pyruvate injection [2]
43.2 ± 1.5 µg/mL | 97% | [Na+].[Na+].[Na+].[O]=[V]([O-])([O-])[O-] [Na3VO4] | –
– | – | CN(C)C(=N)N=C(N)N [metformin] | completely inhibited the hyperglycemic peak
